Laboratory results published in ChEMBL document CHEMBL1126978, “Assessment of the biological value of the 11-hydroxy group of the azalides” (1993).
In brackets after ≈: the same amount, converted by molar mass.

Key:
Type in all cases: functional
[1] = system: Enterobacter cloacae; test: Tested in vitro for antimicrobial activity against Enterobacter cloacae CL 4298; value ranges from 64->128 ug/mL
[2] = system: Enterococcus faecalis; test: Tested in vitro for antimicrobial activity against Enterococcus faecalis MB 5407; value ranges from 64-128 ug/mL
[3] = system: Escherichia coli; test: Tested in vitro for antimicrobial activity against Escherichia coli MB 2884; value ranges from 64->128 ug/mL
[4] = system: Haemophilus influenzae; test: Tested in vitro for antimicrobial activity against Haemophilus influenzae MB 5363; value ranges from 32->128 ug/mL
[5] = system: Klebsiella pneumoniae; test: Tested in vitro for antimicrobial activity against Klebsiella pneumoniae MB 4005; value ranges from 64->128 ug/mL
[6] = system: Staphylococcus aureus; test: Tested in vitro for antimicrobial activity against Staphylococcus aureus MB 2865; value ranges from 16-64 ug/mL
[7] = system: Streptococcus pyogenes; test: Tested in vitro for antimicrobial activity against Streptococcus pyogenes MB 2874; value ranges from 1-4 ug/mL
[8] = system: Streptococcus pyogenes; test: Tested in vitro for antimicrobial activity against constitutively macrolide resistant Streptococcus pyogenes MB 5403
[9] = system: Streptococcus pyogenes; test: Tested in vitro for antimicrobial activity against inducibly macrolide resistant Streptococcus pyogenes MB 5406
[10] = system: Staphylococcus haemolyticus; test: Tested in vitro for antimicrobial activity against Staphylococcus haemolyticus MB 5412; value ranges from 8-32 ug/mL
[11] = system: Enterobacter cloacae; test: Tested in vitro for antimicrobial activity against Enterobacter cloacae CL 4298; value ranges from 2-4 ug/mL
[12] = system: Enterococcus faecalis; test: Tested in vitro for antimicrobial activity against Enterococcus faecalis MB 5407; value ranges from 2-4 ug/mL
[13] = system: Escherichia coli; test: Tested in vitro for antimicrobial activity against Escherichia coli MB 2884; value ranges from 2-4 ug/mL
[14] = system: Haemophilus influenzae; test: Tested in vitro for antimicrobial activity against Haemophilus influenzae MB 5363; value ranges from 2-4 ug/mL
[15] = system: Klebsiella pneumoniae; test: Tested in vitro for antimicrobial activity against Klebsiella pneumoniae MB 4005; value ranges from 2-4 ug/mL
[16] = system: Staphylococcus haemolyticus; test: Tested in vitro for antimicrobial activity against Staphylococcus haemolyticus MB 5412; value ranges from 0.125-0.25 ug/mL
[17] = system: Staphylococcus aureus; test: Tested in vitro for antimicrobial activity against Staphylococcus aureus MB 2865; value ranges from 0.25-1 ug/mL
[18] = system: Streptococcus pyogenes; test: Tested in vitro for antimicrobial activity against Streptococcus pyogenes MB 2874; value ranges from 0.03-0.06 ug/mL
[19] = system: Streptococcus pyogenes; test: Tested in vitro for antimicrobial activity against inducibly macrolide resistant Streptococcus pyogenes MB 5406; value ranges from 8-16 ug/mL
[20] = system: Enterobacter cloacae; test: Tested in vitro for antimicrobial activity against Enterobacter cloacae CL 4298; value ranges from 4-8 ug/mL
[21] = system: Escherichia coli; test: Tested in vitro for antimicrobial activity against Escherichia coli MB 2884; value ranges from 8-16 ug/mL
[22] = system: Enterococcus faecalis; test: Tested in vitro for antimicrobial activity against Enterococcus faecalis MB 5407; value ranges from 4-8 ug/mL
[23] = system: Haemophilus influenzae; test: Tested in vitro for antimicrobial activity against Haemophilus influenzae MB 5363; value ranges from 4-8 ug/mL
[24] = system: Klebsiella pneumoniae; test: Tested in vitro for antimicrobial activity against Klebsiella pneumoniae MB 4005
[25] = system: Staphylococcus haemolyticus; test: Tested in vitro for antimicrobial activity against Staphylococcus haemolyticus MB 5412; value ranges from 0.5-1 ug/mL
[26] = system: Staphylococcus aureus; test: Tested in vitro for antimicrobial activity against Staphylococcus aureus MB 2865; value ranges from 2-4 ug/mL
[27] = system: Enterobacter cloacae; test: Tested in vitro for antimicrobial activity against Enterobacter cloacae CL 4298
[28] = system: Escherichia coli; test: Tested in vitro for antimicrobial activity against Escherichia coli MB 2884
[29] = system: Staphylococcus haemolyticus; test: Tested in vitro for antimicrobial activity against Staphylococcus haemolyticus MB 5412; value ranges from 0.25-0.5 ug/mL
[30] = system: Staphylococcus aureus; test: Tested in vitro for antimicrobial activity against Staphylococcus aureus MB 2865
[31] = system: Streptococcus pyogenes; test: Tested in vitro for antimicrobial activity against inducibly macrolide resistant Streptococcus pyogenes MB 5406; value ranges from 16-32 ug/mL
[32] = system: Enterobacter cloacae; test: Tested in vitro for antimicrobial activity against Enterobacter cloacae CL 4298; value ranges from 32-64 ug/mL
[33] = system: Enterococcus faecalis; test: Tested in vitro for antimicrobial activity against Enterococcus faecalis MB 5407; value ranges from 1-2 ug/mL
[34] = system: Escherichia coli; test: Tested in vitro for antimicrobial activity against Escherichia coli MB 2884; value ranges from 32-64 ug/mL
[35] = system: Klebsiella pneumoniae; test: Tested in vitro for antimicrobial activity against Klebsiella pneumoniae MB 4005; value ranges from 32-64 ug/mL
[36] = system: Staphylococcus haemolyticus; test: Tested in vitro for antimicrobial activity against Staphylococcus haemolyticus MB 5412
[37] = system: Staphylococcus aureus; test: Tested in vitro for antimicrobial activity against Staphylococcus aureus MB 2865; value ranges from 0.25-0.5 ug/mL
[38] = system: Haemophilus influenzae; test: Tested in vitro for antimicrobial activity against Haemophilus influenzae MB 5363; value ranges from 1-4 ug/mL
[39] = system: Klebsiella pneumoniae; test: Tested in vitro for antimicrobial activity against Klebsiella pneumoniae MB 4005; value ranges from 1-2 ug/mL
[40] = system: Staphylococcus aureus; test: Tested in vitro for antimicrobial activity against Staphylococcus aureus MB 2865; value ranges from 0.5-1 ug/mL
[41] = system: Enterobacter cloacae; test: Tested in vitro for antimicrobial activity against Enterobacter cloacae CL 4298; value ranges from 0.5-2 ug/mL
[42] = system: Escherichia coli; test: Tested in vitro for antimicrobial activity against Escherichia coli MB 2884; value ranges from 1-2 ug/mL

In the case of `CC[C@H]1OC(=O)[C@H](C)[C@@H](O[C@H]2C[C@@](C)(OC)[C@@H](O)[C@H](C)O2)[C@H](C)[C@@H](O[C@@H]2O[C@H](C)C[C@H](N(C)C)[C@H]2O)[C@](C)(O)C[C@@H](C)/N=C2\O[C@]1(C)C=C2C`, the MIC [1] is reported as 64 µg/mL (≈ 89.8 µM), the MIC [2] is reported as 64 µg/mL (≈ 89.8 µM) and the MIC [3] is reported as 64 µg/mL (≈ 89.8 µM). For the same compound, the MIC [4] was 32 µg/mL (≈ 44.9 µM), the MIC [5] was 64 µg/mL (≈ 89.8 µM) and the MIC [6] was 16 µg/mL (≈ 22.4 µM). For the same compound, the MIC [7] was 1 µg/mL (≈ 1.4 µM), the MIC [8] was over 128 µg/mL and the MIC [9] was over 128 µg/mL. The MIC [10] was 8 µg/mL (≈ 11.2 µM).
For `CC[C@H]1OC(=O)[C@H](C)[C@@H](O[C@H]2C[C@@](C)(OC)[C@@H](O)[C@H](C)O2)[C@H](C)[C@@H](O[C@@H]2O[C@H](C)C[C@H](N(C)C)[C@H]2O)[C@](C)(O)C[C@@H](C)N(C)C[C@@H](C)C[C@]1(C)O`, the MIC [11] was 2 µg/mL (≈ 2.73 µM), the MIC [12] was 2 µg/mL (≈ 2.73 µM) and the MIC [13] was 2 µg/mL (≈ 2.73 µM). It also gave an MIC [14] of 2 µg/mL (≈ 2.73 µM), an MIC [15] of 2 µg/mL (≈ 2.73 µM) and an MIC [16] of 0.125 µg/mL (≈ 0.171 µM). The MIC [17] was 0.25 µg/mL (≈ 0.341 µM), the MIC [18] was 0.03 µg/mL (≈ 0.0409 µM) and the MIC [8] was over 128 µg/mL. It also gave an MIC [19] of 8 µg/mL (≈ 10.9 µM).
`CC[C@H]1OC(=O)[C@H](C)[C@@H](O[C@H]2C[C@@](C)(OC)[C@@H](O)[C@H](C)O2)[C@H](C)[C@@H](O[C@@H]2O[C@H](C)C[C@H](N(C)C)[C@H]2O)[C@](C)(O)C[C@@H](C)N(C)C/C(C)=C/[C@]1(C)O` showed an MIC [20] of 4 µg/mL (≈ 5.47 µM), an MIC [21] of 8 µg/mL (≈ 10.9 µM) and an MIC [22] of 4 µg/mL (≈ 5.47 µM). It also gave an MIC [23] of 4 µg/mL (≈ 5.47 µM), an MIC [24] of 8 µg/mL (≈ 10.9 µM) and an MIC [25] of 0.5 µg/mL (≈ 0.684 µM). For the same compound, the MIC [26] was 2 µg/mL (≈ 2.74 µM), the MIC [18] was 0.03 µg/mL (≈ 0.041 µM) and the MIC [8] was over 128 µg/mL. It also gave an MIC [19] of 8 µg/mL (≈ 10.9 µM).
Compound `CC[C@H]1OC(=O)[C@H](C)[C@@H](O[C@H]2C[C@@](C)(OC)[C@@H](O)[C@H](C)O2)[C@H](C)[C@@H](O[C@@H]2O[C@H](C)C[C@H](N(C)C)[C@H]2O)[C@](C)(O)C[C@@H](C)N(C)C[C@H](C)C[C@]1(C)O` has an MIC [27] of 2 µg/mL (≈ 2.73 µM), an MIC [22] of 4 µg/mL (≈ 5.46 µM) and an MIC [28] of 4 µg/mL (≈ 5.46 µM). The MIC [23] was 4 µg/mL (≈ 5.46 µM), the MIC [15] was 2 µg/mL (≈ 2.73 µM) and the MIC [29] was 0.25 µg/mL (≈ 0.341 µM). It also gave an MIC [30] of 2 µg/mL (≈ 2.73 µM), an MIC [18] of 0.03 µg/mL (≈ 0.0409 µM) and an MIC [8] of over 128 µg/mL. The MIC [31] was 16 µg/mL (≈ 21.8 µM).
Compound `CC[C@H]1OC(=O)[C@H](C)[C@@H](O[C@H]2C[C@@](C)(OC)[C@@H](O)[C@H](C)O2)[C@H](C)[C@@H](O[C@@H]2O[C@H](C)C[C@H](N(C)C)[C@H]2O)[C@](C)(O)C[C@@H](C)C(=O)[C@H](C)[C@@H](O)[C@]1(C)O` [ERYTHROMYCIN] has an MIC [32] of 32 µg/mL (≈ 43.6 µM), an MIC [33] of 1 µg/mL (≈ 1.36 µM) and an MIC [34] of 32 µg/mL (≈ 43.6 µM). It also gave an MIC [23] of 4 µg/mL (≈ 5.45 µM), an MIC [35] of 32 µg/mL (≈ 43.6 µM) and an MIC [36] of 0.125 µg/mL (≈ 0.17 µM). The MIC [37] was 0.25 µg/mL (≈ 0.341 µM), the MIC [18] was 0.03 µg/mL (≈ 0.0409 µM) and the MIC [8] was over 128 µg/mL. It also gave an MIC [9] of 32 µg/mL (≈ 43.6 µM).
`CC[C@H]1OC(=O)[C@H](C)[C@@H](O[C@H]2C[C@@](C)(OC)[C@@H](O)[C@H](C)O2)[C@H](C)[C@@H](O[C@@H]2O[C@H](C)C[C@H](N(C)C)[C@H]2O)[C@](C)(O)C[C@@H](C)N(C)C[C@H](C)[C@@H](O)[C@]1(C)O` [L-701677] gave an MIC [12] of 2 µg/mL (≈ 2.67 µM), an MIC [38] of 1 µg/mL (≈ 1.34 µM) and an MIC [39] of 1 µg/mL (≈ 1.34 µM). The MIC [16] was 0.125 µg/mL (≈ 0.167 µM), the MIC [40] was 0.5 µg/mL (≈ 0.668 µM) and the MIC [18] was 0.03 µg/mL (≈ 0.0401 µM). For the same compound, the MIC [8] was over 128 µg/mL, the MIC [19] was 8 µg/mL (≈ 10.7 µM) and the MIC [41] was 0.5 µg/mL (≈ 0.668 µM). It also gave an MIC [42] of 1 µg/mL (≈ 1.34 µM).
